Test results as given in patent publication US20040092890A1, “Catheter lock solution including a photo-oxidant” (priority 2003, published 2004).

Assays:
[1] = Relative density of citrate solutions (FIG. 6); format: physicochemical
Excerpt: It is of course understood that the densities of citrate solutions increase as the concentrations of citrate therein increase.
The densities of various formulations of various catheter lock solutions are directly related to the citrate concentration, as reflected in the linear graph set forth in FIG. 6.

gram negative bacteria = conditions: large numbers of bacteria; cited from earlier work
Enterobacter Faecalis = test: Effect of methylene blue on concentration of a gram positive organism without light exposure (FIG. 3); format: cell-based
Procedure: FIG. 3 is a representation of the effect of methylene blue (12 mg/100 ml) on concentration of a gram positive organism, Enterobacter Faecalis, without light exposure.
(§1) In a series of tests, with a gram negative and a gram positive organism, methylene blue inactivated all bacteria within 1 day, while heparin and a 4% concentration of citrate caused no effect on gram positive organisms (FIGS. 2, 3). Methylene blue also advantageously colors the lock solution blue, which provides a useful tool to medical personnel in preventing confusion between the lock solution and any other solution that might be present in a syringe or the catheter.
FIG. 3 is a representation of the effect of methylene blue (12 mg/100 ml) on concentration of a gram positive organism, Enterobacter Faecalis, without light exposure. […] It is expected that illumination will augment bacterial killing by methylene blue even more.

gram-negative organisms = test: Killing of gram-negative organisms by methylene blue 0.01%; conditions: methylene blue 0.01% (10 mg/100 mL)
Escherichia Coli = test: Effect of methylene blue on concentration of a gram negative organism without light exposure (FIG. 2); format: cell-based
Procedure: FIG. 2 is a graph depicting the effect of methylene blue (12 mg/100 ml) on concentration of a gram negative organism, Escherichia Coli, without light exposure.
as §1
FIG. 2 is a representation of the effect of methylene blue (12 mg/100 ml) on concentration of a gram negative organism, Escherichia Coli, without light exposure. […] It is expected that illumination will augment bacterial killing by methylene blue even more.

[2] = methylene blue 12 mg/100 ml, without light exposure

O=C(O)CC(O)(CC(=O)O)C(=O)O [citrate]
Relative density ([1]; 23% citrate): 1.120 | Relative density ([1]; citrate concentration of 0.24M): about 1.045 | Time until all gram negative bacteria are killed (gram negative bacteria): 1 to 7 days | Effect on gram positive organisms (Enterobacter Faecalis; 4% concentration of citrate): no effect

CN(C)c1ccc2nc3ccc(=[N+](C)C)cc-3sc2c1 [methylene blue]
Killing of gram-negative organisms (gram-negative organisms): kill gram-negative organisms within one day | Time to inactivate all bacteria (Escherichia Coli; gram negative organism): ≤ 1 days | Killing of E. Coli (Escherichia Coli; [2]): All E. Coli are killed within one day | Time to inactivate all bacteria (Enterobacter Faecalis; gram positive organism): ≤ 1 days | Killing of Enterobacter Faecalis (Enterobacter Faecalis; [2]): All Enterobacter are killed within one day

heparin
Effect on gram positive organisms (Enterobacter Faecalis; heparin): no effect
